One assay relates to veines saphènes de lapin. The assay is described as follows: Contraction of isolated rabbit saphenous veins produced by KCl (40 mM). The class given is cell-based. To be noted: for augmentation des contractions des veines saphènes de lapin produites par le KCl: KCl 40 mM, compounds 10 nM à 30 mM; for EC50: increase of KCl (40 mM) contraction of rabbit saphenous veins, read-out: DE₅₀. The text has this:
L'effet contractile est mesuré in vitro : • par la force de contraction développée par des anneaux vasculaires quiescents ou stimulés (soit électriquement soit par des agents physiologiques) et maintenus dans des conditions isométriques, • par la pression développée par des réseaux vasculaires perfusés à débit constant.
Les composés de formule (I) et leurs sels éventuels augmentent la contraction des veines saphènes animales produite par la noradrénaline et la dépolarisation (solution hyperpotassique) sans affecter, dans la majorité des cas, les réponses contractiles artérielles. A titre illustratif, les composés des exemples 1, 2, 3, 5 (10 nM à 30 mM) augmentent de plus de 40 % (DE₅₀ + 0,3 microM) les contractions des veines saphènes de lapin produites par le KCl (40 mM).

Assay [1] concerns hyperperméabilité vasculaire induite par le zymosan. The assay is described as follows: Vascular hyperpermeability induced by zymosan, in vivo. To be noted: oral administration of 1-20 mg/kg. The text has this:
La perméabilité vasculaire est étudiée in vivo et in vitro par la mesure de l'extravasation d'albumine ou de colorant liant l'albumine (Bleu Evans). In vivo, l'hyperperméabilité est induite par l'injection d'une solution d'histamine, de bradykinine ou de zymosan. Les modèles in vitro permettent de réaliser des hyperpressions (sur un territoire vasculaire isolé) et/ou des réactions vasculaires inflammatoires.
A titre illustratif, les composés des exemples 1, 2, 3, 5 inhibent l'hyperperméabilité vasculaire induite par le zymosan après administration orale de 1-20 mg/kg.

Assay [2] in a line: Free radical scavenging, DPPH model. The class given is biochemical. Conditions: DPPH as stable free radical, in vitro. The text has this: L'effet "piégeur de radicaux libres" global est étudié in vitro par un modèle utilisant le 1,1-diphényl-2-picrylhydrazyl (DPPH) comme radical libre stable, méthode dérivée de celle décrite par Lamaison et col., Plantes Médic. et Phytothérapie, XXII, 1988, 231-234.

For another assay, the system named is rat. The experiment in a line: Carrageenan-induced pleurisy in the rat. The class given is in vivo. Conditions: 5 mg/kg i.p. twice; for migration leucocytaire dans la cavité pleurale: 6 hours after carrageenan injection; for oedème: 6 hours after carrageenan injection into the pleural cavity. The procedure: L'activité antiinflammatoire est démontrée par la mesure de l'inhibition de l'oedème et de la migration leucocytaire après induction d'une pleurésie chez le rat par injection de carragénine dans la cavité pleurale (Almeida et col., J. Pharmacol. Exp. Therap., 1980, 214 : 74).
Le composé des exemples 31, 3, 5 administrés deux fois en i.p. à la dose de 5 mg/kg inhibent l'oedème et la migration leucocytaire dans la cavité pleurale, 6 heures après injection de carragénine dans le modèle de la pleurésie chez le rat.

For `O=c1c(=NNc2nc3ccccc3s2)c(=O)c2ccccc12` [exemple 1, 2-(Benzothiazol-2-yl-hydrazono)-2.3-dihydro-1.3-dioxo-1H-indene], in the assay with veines saphènes de lapin, the “augmentation des contractions des veines saphènes de lapin produites par le KCl” value was > 40% and the EC50 is ~300 nM. Further, the “hyperperméabilité vasculaire induite par le zymosan” value in assay [1] is listed as “inhibent”.

As to `O=c1c(=NNc2nc3ccccc3o2)c(=O)c2ccccc12` [exemple 2, 2-(Benzoxazol-2-yl-hydrazono)-2.3-dihydro-1.3-dioxo-1H-indene], in the assay with veines saphènes de lapin, the “augmentation des contractions des veines saphènes de lapin produites par le KCl” value was > 40% and the EC50 was ~300 nM. The “hyperperméabilité vasculaire induite par le zymosan” value in assay [1] is on record as “inhibent”. Also, in assay [2], the effet antiradicalaire result is “effet antiradicalaire”.

In the case of `O=c1c(=NNc2nc3ccccc3[nH]2)c(=O)c2ccccc12` [exemple 3, 2-(Benzimidazol-2-yl-hydrazono)-2.3-dihydro-1.3-dioxo-1H-indene], in the assay on veines saphènes de lapin, the “augmentation des contractions des veines saphènes de lapin produites par le KCl” value was > 40% and the EC50 was ~300 nM. Moreover, the “hyperperméabilité vasculaire induite par le zymosan” value in assay [1] was “inhibent”. For the same molecule, in the assay with rat, the “migration leucocytaire dans la cavité pleurale” value is recorded as “inhibent” and the oedème result is reported as “inhibent”.

With `O=c1c(=NNc2nc3cnccc3[nH]2)c(=O)c2ccccc12` [exemple 5, 2-(5-Azabenzimidazol-2-yl-hydrazono)-2.3-dihydro-1.3-dioxo-1H-indene], in the assay on veines saphènes de lapin, the “augmentation des contractions des veines saphènes de lapin produites par le KCl” value is on record as > 40% and the EC50 was ~300 nM. Also, the “hyperperméabilité vasculaire induite par le zymosan” value in assay [1] is listed as “inhibent”. Besides, in the assay with rat, the “migration leucocytaire dans la cavité pleurale” value is on record as “inhibent” and the oedème result is “inhibent”.

For `O=C(NN=c1c(=O)c2cccnc2c1=O)Nc1ccccc1` [exemple 6, 5.7-Dioxo-6-(phenylaminocarbonylhydrazono)cyclopenta[b]pyridine], the effet antiradicalaire entry in assay [2] is on record as “effet antiradicalaire”.

The values are drawn from patent publication EP0646579A1, “Ketonic indane derivatives and heterocyclic analysis and their use in therapy” (LABORATOIRE INNOTHERA Société Anonyme, priority 1993, dated 1995).
